According to article PMC8279409, “Novel Mixed NOP/Opioid Receptor Peptide Agonists” (Journal of Medicinal Chemistry, 2021):
Read-outs that look alike come from different tables or passages of the source. Where a SMILES comes first, the peptide text is derived from it. Where no end group is shown, it is not given here. [ ]: non-standard residue; d: D form. Bip = N[C@@H](Cc1ccc(-c2ccccc2)cc1)C(=O)O; Phe(4-F) = N[C@@H](Cc1ccc(F)cc1)C(=O)O; Dmt = Cc1cc(O)cc(C)c1C[C@H](N)C(=O)O; Phg = N[C@H](C(=O)O)c1ccccc1; Dap = NC[C@H](N)C(=O)O

Experiments:
[1] = molecular target: T1, human NOP receptor (Homo sapiens, UniProt P41146); experiment: Calcium mobilization, NOP receptor; type: cell-based; conditions: for Emax: mean ± SEM of at least three experiments in duplicate, SEM; for NOP pEC50 (CL95%): CHO cells coexpressing human NOP and Gαqi5, Fluo-4 AM, 37 °C, mean of at least three experiments in duplicate, CL95% in brackets; for NOP/mu CR (concentration ratio): calcium mobilization, NOP versus mu
T1 construct: expressed in transfected cells; host or cells: CHO cells stably coexpressing the receptor and chimeric Gαqi5
T1 sequence (P41146 whole entry): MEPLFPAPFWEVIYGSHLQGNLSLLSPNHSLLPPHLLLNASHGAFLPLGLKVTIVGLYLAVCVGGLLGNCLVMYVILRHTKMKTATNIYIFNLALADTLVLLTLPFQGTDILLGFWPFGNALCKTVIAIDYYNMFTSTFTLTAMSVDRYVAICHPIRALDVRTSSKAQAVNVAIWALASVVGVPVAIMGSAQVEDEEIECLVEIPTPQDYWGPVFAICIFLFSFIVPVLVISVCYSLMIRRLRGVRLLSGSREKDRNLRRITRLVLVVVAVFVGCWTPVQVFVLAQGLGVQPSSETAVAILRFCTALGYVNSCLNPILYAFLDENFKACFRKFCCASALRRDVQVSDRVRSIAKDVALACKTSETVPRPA
Method: CHO cells stably coexpressing the human NOP or kappa or the mu receptor and the C-terminally modified Gαqi5 and CHO cells coexpressing the delta receptor and the GαqG66Di5 protein were generated and cultured as described previously.[45],[46] Cells were maintained in Dulbecco’s modified Eagle’s medium/nutrient mixture F-12 (DEMEM/F-12) supplemented with 10% FBS, 100 U/mL penicillin and 100 μg/mL streptomycin, 100 μg/mL hygromicin B, and 200 μg/mL G418 and cultured at 37 °C in 5% CO2 humidified air. Cells were seeded at a density of 50,000 cells/well into 96-well black, clear-bottom plates. The following day, the cells were incubated with Hanks’ balanced salt solution (HBSS) supplemented with 2.5 mM probenecid, 3 μM of the calcium-sensitive fluorescent dye Fluo-4 AM, and 0.01% pluronic acid for 30 min at 37 °C. After that time, the loading solution was aspirated and 100 μL/well of HBSS supplemented with 20 mM HEPES, 2.5 mM probenecid, and 500 μM brilliant black was added. Serial dilutions were carried out in HBSS/HEPES (20 mM) buffer (containing 0.02% BSA fraction V). After placing both plates (cell culture and master plate) into the fluorometric imaging plate reader FlexStation II (Molecular Devices, Sunnyvale, CA), fluorescence changes were measured. On-line additions were carried out in a volume of 50 μL/well. To facilitate drug diffusion into the wells, the present studies were performed at 37 °C. Maximum change in fluorescence, expressed as percent over the baseline fluorescence, was used to determine agonist response.
The pharmacological terminology adopted in this paper is consistent with IUPHAR recommendations.[59] All data are expressed as the mean ± standard error of the mean (SEM) of at least three experiments performed in duplicate. […] Concentration-response curves to agonists were fitted to the classical four-parameter logistic nonlinear regression model:
Effect = Baseline + (Emax – Baseline)/(1 + 10^(LogEC50 – Log[compound]) × Hillslope). Curve fitting was performed using PRISM 6.0 (GraphPad Software Inc., San Diego).

[2] = molecular target: T2, human mu receptor (Homo sapiens, UniProt P35372); experiment: Calcium mobilization, mu opioid receptor; type: cell-based; conditions: for Emax / activation at 10 µM: percent over the baseline fluorescence, SEM; for Emax: mean ± SEM of at least three experiments in duplicate; for mu pEC50 (CL95%): CHO cells coexpressing human mu receptor and Gαqi5, Fluo-4 AM, 37 °C, mean of at least three experiments in duplicate, CL95% in brackets; for pEC50_mu: molecular formula strings CSV, repeats calcium mobilization values of Tables 1-3; for activation at 10 µM: mean ± SEM
T2 construct: expressed in transfected cells; host or cells: CHO cells stably coexpressing the receptor and chimeric Gαqi5
T2 sequence (P35372 whole entry): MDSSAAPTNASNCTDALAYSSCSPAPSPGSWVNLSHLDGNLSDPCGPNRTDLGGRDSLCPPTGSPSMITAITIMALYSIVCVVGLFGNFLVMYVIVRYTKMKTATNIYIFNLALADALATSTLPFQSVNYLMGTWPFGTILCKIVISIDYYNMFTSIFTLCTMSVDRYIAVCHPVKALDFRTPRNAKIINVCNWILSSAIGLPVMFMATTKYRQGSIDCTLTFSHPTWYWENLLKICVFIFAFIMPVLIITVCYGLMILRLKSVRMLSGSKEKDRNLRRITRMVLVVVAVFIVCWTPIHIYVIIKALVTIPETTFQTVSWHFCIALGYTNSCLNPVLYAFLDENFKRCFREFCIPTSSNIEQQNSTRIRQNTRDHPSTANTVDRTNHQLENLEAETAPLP

[3] = read-out: NOP Emax ± S.E.M., Table 2 series, percent over the baseline fluorescence
[4] = read-out: NOP Emax ± S.E.M., Table 3 series, percent over the baseline fluorescence
[5] = read-out: mu Emax ± S.E.M., Table 3 series
[6] = read-out: mu effect at 10 μM (crc incomplete), Table 2 series

Compound	Emax [1, 3] [%]	pEC50_mu [2]	mu pEC50 (CL95%) ([2]; Table 2 series)	activation at 10 µM [2, 6] [%]	also measured
Cc1cc(O)cc(C)c1C[C@H](NC(=O)[C@H](Cc1ccccc1)NC(=O)CNC(=O)CNC(=O)[C@@H](N)Cc1ccc(O)cc1)C(=O)NCC(=O)N[C@@H](C)C(=O)N[C@@H](CCCNC(=N)N)C(=O)N[C@@H](CCCCN)C(=O)N[C@@H](CO)C(=O)N[C@@H](C)C(=O)N[C@@H](CCCNC(=N)N)C(=O)N[C@@H](CCCCN)C(N)=O [Compound 28, [Tyr^1,Dmt^5]N/OFQ(1-13)-NH2] (H-YGGF[Dmt]GARKSARK-NH2)	251 ± 22				Emax ([2]; read-out: mu Emax ± S.E.M., Table 2 series): 301 ± 35%
C[C@H](NC(=O)CNC(=O)[C@H](CN)NC(=O)[C@H](Cc1ccccc1)NC(=O)CNC(=O)CNC(=O)[C@@H](N)Cc1ccc(O)cc1)C(=O)N[C@@H](CCCNC(=N)N)C(=O)N[C@@H](CCCCN)C(=O)N[C@@H](CO)C(=O)N[C@@H](C)C(=O)N[C@@H](CCCNC(=N)N)C(=O)N[C@@H](CCCCN)C(N)=O [Compound 9, [Tyr^1,Dap^5]N/OFQ(1-13)-NH2] (H-YGGF[Dap]GARKSARK-NH2)		crc incomplete			NOP pEC50 (CL95%) ([1]; Table 1 series, FlexStation II): 7.20 (6.95–7.45); NOP/mu CR (concentration ratio) ([1]; Table 1 series): 0.06; Emax ([1]; read-out: NOP Emax ± S.E.M., Table 1 series, maximum change in fluorescence as percent over the baseline fluorescence): 367 ± 9%; mu pEC50 (CL95%) ([2]; Table 1 series): crc incomplete; 10 μM: 144 ± 44; activation at 10 µM ([2]; read-out: mu effect at 10 μM (crc incomplete), Table 1 series): 144 ± 44%
Cc1cc(O)cc(C)c1C[C@H](N)C(=O)NCC(=O)NCC(=O)N[C@@H](Cc1ccccc1)C(=O)N[C@@H](Cc1ccccc1)C(=O)NCC(=O)N[C@@H](C)C(=O)N[C@@H](CCCNC(=N)N)C(=O)N[C@@H](CCCCN)C(=O)N[C@@H](CO)C(=O)N[C@@H](C)C(=O)N[C@@H](CCCNC(=N)N)C(=O)N[C@@H](CCCCN)C(N)=O [Compound 31, [Dmt^1,Phe^5]N/OFQ(1-13)-NH2] (H-[Dmt]GGFFGARKSARK-NH2)					Emax [1, 4]: 277 ± 28%; Emax [2, 5]: 335 ± 22%
YGGFHGARKSARK-NH2 [Compound 16, [Tyr^1,His^5]N/OFQ(1-13)-NH2]	249 ± 23	crc incomplete	crc incomplete; 10 μM: 230 ± 37	230 ± 37	NOP pEC50 (CL95%) ([1]; Table 2 series): 7.39 (7.16–7.62); NOP/mu CR (concentration ratio) ([1]; Table 2 series): 0.05
C[C@H](NC(=O)CNC(=O)[C@H](Cc1ccc(-c2ccccc2)cc1)NC(=O)[C@H](Cc1ccccc1)NC(=O)CNC(=O)CNC(=O)[C@@H](N)Cc1ccc(O)cc1)C(=O)N[C@@H](CCCNC(=N)N)C(=O)N[C@@H](CCCCN)C(=O)N[C@@H](CO)C(=O)N[C@@H](C)C(=O)N[C@@H](CCCNC(=N)N)C(=O)N[C@@H](CCCCN)C(N)=O [Compound 24, [Tyr^1,Bip^5]N/OFQ(1-13)-NH2] (H-YGGF[Bip]GARKSARK-NH2)	272 ± 29	crc incomplete	crc incomplete; 10 μM: 151 ± 66	151 ± 66	NOP pEC50 (CL95%) ([1]; Table 2 series): 6.93 (6.63–7.22); NOP/mu CR (concentration ratio) ([1]; Table 2 series): 0.15
Cc1cc(O)cc(C)c1C[C@H](N)C(=O)NCC(=O)NCC(=O)N[C@@H](Cc1ccccc1)C(=O)N[C@H](C(=O)NCC(=O)N[C@@H](C)C(=O)N[C@@H](CCCNC(=N)N)C(=O)N[C@@H](CCCCN)C(=O)N[C@@H](CO)C(=O)N[C@@H](C)C(=O)N[C@@H](CCCNC(=N)N)C(=O)N[C@@H](CCCCN)C(N)=O)c1ccccc1 [Compound 32, [Dmt^1,Phg^5]N/OFQ(1-13)-NH2] (H-[Dmt]GGF[Phg]GARKSARK-NH2)					Emax [1, 4]: 282 ± 12%; Emax [2, 5]: 339 ± 28%
C[C@H](NC(=O)CNC(=O)[C@H](Cc1ccc(F)cc1)NC(=O)[C@H](Cc1ccccc1)NC(=O)CNC(=O)CNC(=O)[C@@H](N)Cc1ccc(O)cc1)C(=O)N[C@@H](CCCNC(=N)N)C(=O)N[C@@H](CCCCN)C(=O)N[C@@H](CO)C(=O)N[C@@H](C)C(=O)N[C@@H](CCCNC(=N)N)C(=O)N[C@@H](CCCCN)C(N)=O [Compound 21, [Tyr^1,(pF)Phe^5]N/OFQ(1-13)-NH2] (H-YGGF[Phe(4-F)]GARKSARK-NH2)	311 ± 22	crc incomplete	crc incomplete; 10 μM: 256 ± 55	256 ± 55	
